# Results published in patent US7273848B2, “Apolipoprotein A-I agonists and their use to treat dyslipidemic disorders” (priority 1997, dated 2007).
# Non-standard residues stand in square brackets, D forms with d. Residues, ends and D or L forms follow the SMILES beside them. No end group written: not given here. Orn = NCCC[C@H](N)C(=O)O; Aib = CC(C)(N)C(=O)O
# Target: T1, LCAT (purified from human plasma) (Homo sapiens, UniProt P04180)
# T1 construct: from tissue; host or cells: human plasma
# T1 sequence (P04180 25-440): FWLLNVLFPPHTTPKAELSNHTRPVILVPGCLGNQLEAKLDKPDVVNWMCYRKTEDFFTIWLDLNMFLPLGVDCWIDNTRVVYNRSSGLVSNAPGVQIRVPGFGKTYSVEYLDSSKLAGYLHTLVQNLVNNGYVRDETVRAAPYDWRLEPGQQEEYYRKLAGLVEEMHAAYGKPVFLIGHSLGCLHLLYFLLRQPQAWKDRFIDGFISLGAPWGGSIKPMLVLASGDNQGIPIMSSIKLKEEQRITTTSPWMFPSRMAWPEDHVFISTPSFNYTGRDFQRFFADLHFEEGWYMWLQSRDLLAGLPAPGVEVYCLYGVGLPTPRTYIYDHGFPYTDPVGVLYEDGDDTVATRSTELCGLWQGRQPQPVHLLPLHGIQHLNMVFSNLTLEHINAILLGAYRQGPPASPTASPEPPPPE
# Assay: LCAT activation assay
# Type: biochemical
# Details: LCAT activation as compared with native human ApoA-I (= 100%), equivalent masses
# How it was run: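 Substrate SUVs of EPC or POPC with 14C-cholesterol (20:1 molar ratio), in 10 mM Tris, 0.14 M NaCl, 1 mM EDTA, pH 7.4, were preincubated with peptide or equal mass of plasma ApoA-I. Reaction started with human plasma LCAT; activation was measured as cholesterol-to-ester conversion relative to ApoA-I (100%).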
row,Molecule,ACTIVITY (%) LCAT [%]
1,PLLELFENLLERLLDALQKKLK [peptide 150],57
2,PVLDLFRELLNELLEALKQKKK [compound 56],18
3,PLLELFKELLQELLEALKQKLK [peptide 23],54
4,PVLDAFRELLEALLQLKK [compound 222],8
5,Ac-PVLDLLRELLEELKQKLK-NH2 [compound 191],100
6,"CC(C)C[C@H](NC(=O)[C@H](C)NC(=O)[C@H](CCC(=O)O)NC(=O)[C@H](CC(C)C)NC(=O)C(C)(C)NC(=O)[C@H](CCC(=O)O)NC(=O)[C@H](CC(N)=O)NC(=O)[C@H](CC(C)C)NC(=O)[C@H](CCCCN)NC(=O)[C@H](CCCCN)NC(=O)[C@H](CCCNC(=N)N)NC(=O)[C@H](Cc1ccccc1)NC(=O)[C@H](CCC(=O)O)NC(=O)[C@H](CC(=O)O)NC(=O)[C@H](CC(C)C)NC(=O)[C@@H](NC(=O)[C@@H]1CCCN1)C(C)C)C(=O)N[C@@H](CCCCN)C(=O)N[C@@H](CCC(N)=O)C(=O)N[C@@H](CCCCN)C(=O)N[C@@H](CC(C)C)C(=O)N[C@@H](CCCCN)C(=O)O [compound 69, PVLDEFRKKLNEXLEALKQKLK] (H-PVLDEFRKKLNE[Aib]LEALKQKLK-OH)",13
7,"CC(=O)N1CCC[C@H]1C(=O)N[C@H](C(=O)N[C@@H](CC(C)C)C(=O)N[C@@H](CC(=O)O)C(=O)N[C@@H](CC(C)C)C(=O)N[C@@H](Cc1ccccc1)C(=O)N[C@@H](CCCNC(=N)N)C(=O)N[C@@H](CCC(=O)O)C(=O)N[C@@H](CC(C)C)C(=O)N[C@@H](CC(C)C)C(=O)N[C@@H](CCC(=O)O)C(=O)N[C@@H](CCC(=O)O)C(=O)N[C@@H](CC(C)C)C(=O)N[C@@H](CCCN)C(=O)N[C@@H](CCC(N)=O)C(=O)N[C@@H](CCCN)C(=O)N[C@@H](CC(C)C)C(=O)N[C@@H](CCCN)C(N)=O)C(C)C [compound 211, PVLDLFRELLEELOQOLO] (Ac-PVLDLFRELLEEL[Orn]Q[Orn]L[Orn]-NH2)",45
8,"CC(C)C[C@H](NC(=O)[C@H](C)NC(=O)[C@H](CCC(=O)O)NC(=O)[C@H](CC(C)C)NC(=O)C(C)(C)NC(=O)[C@H](CCC(=O)O)NC(=O)[C@H](CC(N)=O)NC(=O)[C@H](CC(C)C)NC(=O)[C@H](CCCCN)NC(=O)[C@H](CCC(=O)O)NC(=O)[C@H](Cc1c[nH]c2ccccc12)NC(=O)[C@H](Cc1ccccc1)NC(=O)[C@H](CCC(=O)O)NC(=O)[C@H](CC(=O)O)NC(=O)[C@H](CC(C)C)NC(=O)[C@@H](NC(=O)[C@@H]1CCCN1)C(C)C)C(=O)N[C@@H](CCCCN)C(=O)N[C@@H](CCC(N)=O)C(=O)N[C@@H](CCCCN)C(=O)N[C@@H](CC(C)C)C(=O)N[C@@H](CCCCN)C(=O)O [compound 73, PVLDEFWEKLNEXLEALKQKLK] (H-PVLDEFWEKLNE[Aib]LEALKQKLK-OH)",10
9,"GIKKFLGSIWKFIKAFVG [peptide 242, reference compound]",7
10,"CC(C)C[C@H](NC(=O)[C@H](C)NC(=O)[C@H](CC(=O)O)NC(=O)[C@H](CC(C)C)NC(=O)[C@H](CC(C)C)NC(=O)[C@H](CCCN)NC(=O)[C@H](CCC(=O)O)NC(=O)[C@H](CC(C)C)NC(=O)[C@H](CC(C)C)NC(=O)[C@H](CC(N)=O)NC(=O)[C@H](CCC(=O)O)NC(=O)[C@H](Cc1ccccc1)NC(=O)[C@H](CC(C)C)NC(=O)[C@H](CCC(=O)O)NC(=O)[C@H](CC(C)C)NC(=O)[C@@H](NC(=O)[C@@H]1CCCN1)C(C)C)C(=O)N[C@@H](CCC(N)=O)C(=O)N[C@@H](CCCN)C(=O)N[C@@H](CCCN)C(=O)N[C@@H](CC(C)C)C(=O)N[C@@H](CCCN)C(=O)O [compound 170, PVLELFENLLEOLLDALQOOLO] (H-PVLELFENLLE[Orn]LLDALQ[Orn][Orn]L[Orn]-OH)",17
11,CC(=O)N1CCC[C@@H]1C(=O)N[C@H](C(=O)N[C@@H](CC(C)C)C(=O)N[C@@H](CC(=O)O)C(=O)N[C@@H](CC(C)C)C(=O)N[C@@H](Cc1ccccc1)C(=O)N[C@@H](CCCNC(=N)N)C(=O)N[C@@H](CCC(=O)O)C(=O)N[C@@H](CC(C)C)C(=O)N[C@@H](CC(C)C)C(=O)N[C@@H](CCC(=O)O)C(=O)N[C@@H](CCC(=O)O)C(=O)N[C@@H](CC(C)C)C(=O)N[C@@H](CCCCN)C(=O)N[C@@H](CCC(N)=O)C(=O)N[C@@H](CCCCN)C(=O)N[C@@H](CC(C)C)C(=O)N[C@@H](CCCCN)C(N)=O)C(C)C [compound 214] (Ac-[dP]VLDLFRELLEELKQKLK-NH2),39
12,GVLELFLNLLERLLDALQKKLK [compound 177],10
13,"CC(C)C[C@H](NC(=O)[C@H](C)NC(=O)[C@H](Cc1c[nH]c2ccccc12)NC(=O)[C@H](CC(C)C)NC(=O)C(C)(C)NC(=O)[C@H](CCC(=O)O)NC(=O)[C@H](CC(N)=O)NC(=O)[C@H](CC(C)C)NC(=O)[C@H](CCCCN)NC(=O)[C@H](CCC(=O)O)NC(=O)[C@H](CCCNC(=N)N)NC(=O)[C@H](Cc1ccccc1)NC(=O)[C@H](CCC(=O)O)NC(=O)[C@H](CC(=O)O)NC(=O)[C@H](CC(C)C)NC(=O)[C@@H](NC(=O)[C@@H]1CCCN1)C(C)C)C(=O)N[C@@H](CCCCN)C(=O)N[C@@H](CCC(N)=O)C(=O)N[C@@H](CCCCN)C(=O)N[C@@H](CC(C)C)C(=O)N[C@@H](CCCCN)C(=O)O [compound 89, PVLDEFREKLNEXLWALKQKLK] (H-PVLDEFREKLNE[Aib]LWALKQKLK-OH)",6
14,PVLELFKELLEELKQKLK [compound 216],35

# Next, values leading:
row,ACTIVITY (%) LCAT [%],Molecule
1,30,PVLEFFENLLERLLDALQKKLK [compound 157]
2,9,PVLELFDNLLEKLLEALQKKLR [compound 178]
3,7,PVLELFENLLEKLLEALQKKLK [compound 182]
4,28,PVLDLFENLLERLLDALQKKLK [compound 159]
5,1,PVLDAFRELAEALAQLKK [compound 225]
6,8,"CC(C)C[C@H](NC(=O)[C@H](C)NC(=O)[C@H](CCC(=O)O)NC(=O)[C@H](CC(C)C)NC(=O)C(C)(C)NC(=O)[C@H](CCC(=O)O)NC(=O)[C@H](CC(N)=O)NC(=O)[C@H](CC(C)C)NC(=O)[C@H](CCCCN)NC(=O)[C@H](CCC(=O)O)NC(=O)[C@H](CCCNC(=N)N)NC(=O)[C@H](Cc1ccccc1)NC(=O)[C@H](CCC(=O)O)NC(=O)[C@H](CC(=O)O)NC(=O)[C@@H](N)CC(C)C)C(=O)N[C@@H](CCCCN)C(=O)N[C@@H](CCC(N)=O)C(=O)N[C@@H](CCCCN)C(=O)N[C@@H](CC(C)C)C(=O)N[C@@H](CCCCN)C(=O)O [compound 82, ~~LDEFREKLNEXLEALKQKLK] (H-LDEFREKLNE[Aib]LEALKQKLK-OH)"
7,9,"CC(C)C[C@H](NC(=O)[C@H](C)NC(=O)[C@H](CCC(=O)O)NC(=O)[C@H](CC(C)C)NC(=O)C(C)(C)NC(=O)[C@H](CCCCN)NC(=O)[C@H](CC(N)=O)NC(=O)[C@H](CC(C)C)NC(=O)[C@H](CCCCN)NC(=O)[C@H](CCC(=O)O)NC(=O)[C@H](CCCNC(=N)N)NC(=O)[C@H](Cc1ccccc1)NC(=O)[C@H](CCC(=O)O)NC(=O)[C@H](CC(=O)O)NC(=O)[C@H](CC(C)C)NC(=O)[C@@H](NC(=O)[C@@H]1CCCN1)C(C)C)C(=O)N[C@@H](CCCCN)C(=O)N[C@@H](CCC(N)=O)C(=O)N[C@@H](CCCCN)C(=O)N[C@@H](CC(C)C)C(=O)N[C@@H](CCCCN)C(=O)O [compound 77, PVLDEFREKLNKXLEALKQKLK] (H-PVLDEFREKLNK[Aib]LEALKQKLK-OH)"
8,83,PVLDLFRELGNELLEALKQKLK [peptide 9]
9,0,"CSCC[C@H](NC(=O)C(C)(C)NC(=O)[C@H](CCC(=O)O)NC(=O)[C@H](CC(N)=O)NC(=O)[C@H](CC(C)C)NC(=O)[C@H](CCCCN)NC(=O)[C@H](CCC(=O)O)NC(=O)[C@H](CCCNC(=N)N)NC(=O)[C@H](Cc1ccccc1)NC(=O)[C@H](CCC(=O)O)NC(=O)[C@H](CC(=O)O)NC(=O)[C@H](CC(C)C)NC(=O)[C@@H](NC(=O)[C@@H]1CCCN1)C(C)C)C(=O)N[C@@H](CCC(=O)O)C(=O)N[C@@H](C)C(=O)N[C@@H](CC(C)C)C(=O)N[C@@H](CCCCN)C(=O)N[C@@H](CCC(N)=O)C(=O)N[C@@H](CCCCN)C(=O)N[C@@H](CC(C)C)C(=O)N[C@@H](CCCCN)C(=O)O [compound 114, PVLDEFREKLNEXMEALKQKLK] (H-PVLDEFREKLNE[Aib]MEALKQKLK-OH)"
10,5,"CC(C)C[C@H](NC(=O)[C@H](C)NC(=O)[C@H](CCC(=O)O)NC(=O)[C@H](CC(C)C)NC(=O)C(C)(C)NC(=O)[C@H](CC(C)C)NC(=O)[C@H](CC(N)=O)NC(=O)[C@H](CC(C)C)NC(=O)[C@H](CC(C)C)NC(=O)[C@H](CCC(=O)O)NC(=O)[C@H](CCCNC(=N)N)NC(=O)[C@H](Cc1ccccc1)NC(=O)[C@H](CC(C)C)NC(=O)[C@H](CC(=O)O)NC(=O)[C@H](CC(C)C)NC(=O)[C@@H](NC(=O)[C@@H]1CCCN1)C(C)C)C(=O)N[C@@H](CCCCN)C(=O)N[C@@H](CCC(N)=O)C(=O)N[C@@H](CCCCN)C(=O)N[C@@H](CC(C)C)C(=O)N[C@@H](CCCCN)C(=O)O [compound 95, PVLDLFRELLNLXLEALKQKLK] (H-PVLDLFRELLNL[Aib]LEALKQKLK-OH)"
11,23,PVLELFENLLERLLDLLQKKLK [compound 165]
12,19,VVLDLFRELLNELLEALKQKLK [compound 53]
